Source: ChEMBL document CHEMBL4819108, “A trio of quinoline-isoniazid-phthalimide with promising antiplasmodial potential: Synthesis, in-vitro evaluation and heme-polymerization inhibition studies” (Bioorg Med Chem, 2021)
Values belong to the compound of their own block, whether it stands above or below them.

Assays:
[1] = test system: Plasmodium falciparum; assay: Antiplasmodial activity against CQ-resistant Plasmodium falciparum W2; format: functional, organism-based
[2] = test system: Vero; assay: Cytotoxicity against African green monkey Vero cells; format: cell-based; conditions: Chlorocebus sabaeus
[3] = Selectivity index, ratio of IC50 for African green monkey Vero cells to IC50 for antiplasmodial activity against CQ-resistant Plasmodium falciparum W2; format: toxicity; conditions: read-out: Ratio IC50
[4] = test system: Plasmodium falciparum; assay: Antimalarial activity against Plasmodium falciparum 7G8; format: functional, organism-based
[5] = test system: Plasmodium falciparum; assay: Antimalarial activity against Plasmodium falciparum RKL9 infected in human RBC assessed as reduction in parasite growth incubated for 24 hrs by giemsa staining based assay; format: functional, organism-based; conditions: RKL9, Erythrocyte
[6] = test system: Heme; assay: Binding affinity to monomeric heme in HEPES buffer at pH 7.4
[7] = test system: Heme; assay: Binding affinity to monomeric heme in MES buffer at pH 5.6

SMILES: O=C(O)c1ccc2c(c1)C(=O)N(CCNc1ccnc3cc(Cl)ccc13)C2=O
IC50 [1]: 424 nM | IC50 [2]: > 253000 nM | selectivity ratio [3]: 601

IC50 [4]: 42.2 nM
SMILES: O=C(N/N=C/c1c(O)ccc2ccccc12)c1ccncc1

SMILES: O=C(O)c1ccc2c(c1)C(=O)N(CCCNc1ccnc3cc(Cl)ccc13)C2=O
IC50 [1]: 496 nM | selectivity ratio [3]: 487

SMILES: O=C(NN1C(=O)c2ccc(N3CCN(c4ccnc5cc(Cl)ccc45)CC3)cc2C1=O)c1ccncc1
IC50 [1]: 1300 nM | IC50 [2]: > 438000 nM | selectivity ratio [3]: 338

SMILES: O=C(N/N=C/C=C/c1ccccc1)c1ccncc1
IC50 [5]: 66 nM

SMILES: O=C(NNC(=O)c1ccc2c(c1)C(=O)N(CCCCCCNc1ccnc3cc(Cl)ccc13)C2=O)c1ccncc1
IC50 [1]: > 10000 nM | selectivity ratio [3]: 12.7

SMILES: O=C(NNC(=O)c1ccc2c(c1)C(=O)N(CCCCCCCCNc1ccnc3cc(Cl)ccc13)C2=O)c1ccncc1
IC50 [1]: 43.3 nM | selectivity ratio [3]: 2970

SMILES: O=C(O)c1ccc2c(c1)C(=O)N(CCCCCCNc1ccnc3cc(Cl)ccc13)C2=O
IC50 [1]: 30.2 nM | selectivity ratio [3]: 805

SMILES: O=C(NNC(=O)c1ccc2c(c1)C(=O)N(CCCNc1ccnc3cc(Cl)ccc13)C2=O)c1ccncc1
IC50 [1]: 412 nM | selectivity ratio [3]: 289

SMILES: O=C(NCCNc1ccnc2cc(Cl)ccc12)c1ccc2c(c1)C(=O)N(NC(=O)c1ccncc1)C2=O
IC50 [1]: 445 nM | selectivity ratio [3]: 144

SMILES: O=C(NCCCCCCNc1ccnc2cc(Cl)ccc12)c1ccc2c(c1)C(=O)N(NC(=O)c1ccncc1)C2=O
IC50 [1]: 11.5 nM | log K [6]: 6.66 | log K [7]: 6.39 | selectivity ratio [3]: 2900

SMILES: O=C(O)c1ccc2c(c1)C(=O)N(CCCCNc1ccnc3cc(Cl)ccc13)C2=O
IC50 [1]: 50.8 nM | selectivity ratio [3]: 789

SMILES: O=C(NNC(=O)c1ccc(N2C(=O)c3ccccc3C2=O)cc1)c1ccncc1
IC50 [1]: > 10000 nM | IC50 [2]: > 259000 nM | selectivity ratio [3]: 25.8

SMILES: O=C(N/N=C/c1ccc(O)cc1)c1ccncc1
IC50 [5]: 42.2 nM

SMILES: O=C(NN1C(=O)c2ccc(C(=O)OCCCNc3ccnc4cc(Cl)ccc34)cc2C1=O)c1ccncc1
IC50 [1]: 3770 nM | IC50 [2]: > 189000 nM | selectivity ratio [3]: 50

SMILES: O=C(NCCCNc1ccnc2cc(Cl)ccc12)c1ccc2c(c1)C(=O)N(NC(=O)c1ccncc1)C2=O
IC50 [1]: 439 nM | selectivity ratio [3]: 366

SMILES: O=C(NNC(=O)c1ccc2c(c1)C(=O)N(CCCCNc1ccnc3cc(Cl)ccc13)C2=O)c1ccncc1
IC50 [1]: 26.3 nM | selectivity ratio [3]: 627

SMILES: O=C(NCCCCNc1ccnc2cc(Cl)ccc12)c1ccc2c(c1)C(=O)N(NC(=O)c1ccncc1)C2=O
IC50 [1]: 253 nM | selectivity ratio [3]: 58.1

SMILES: O=C(CN1C(=O)c2ccccc2C1=O)NNC(=O)c1ccncc1
IC50 [1]: > 10000 nM | IC50 [2]: > 308000 nM | selectivity ratio [3]: 30.8

SMILES: COc1ccc(/C=N/NC(=O)c2ccncc2)cc1O
IC50 [5]: 40.2 nM

SMILES: O=C(O)c1ccc2c(c1)C(=O)N(CCCCCCCCNc1ccnc3cc(Cl)ccc13)C2=O
IC50 [1]: 43.2 nM | IC50 [2]: > 208000 nM | selectivity ratio [3]: 4820

SMILES: O=C(NNC(=O)c1ccc2c(c1)C(=O)N(CCNc1ccnc3cc(Cl)ccc13)C2=O)c1ccncc1
IC50 [1]: 1400 nM | IC50 [2]: > 194000 nM | selectivity ratio [3]: 138

SMILES: O=C(NN1C(=O)c2ccc(C(=O)OCCNc3ccnc4cc(Cl)ccc34)cc2C1=O)c1ccncc1
IC50 [1]: 812 nM | IC50 [2]: > 194000 nM | selectivity ratio [3]: 239

SMILES: O=C(NCCCCCCCCNc1ccnc2cc(Cl)ccc12)c1ccc2c(c1)C(=O)N(NC(=O)c1ccncc1)C2=O
IC50 [1]: 93.5 nM | IC50 [2]: > 167000 nM | selectivity ratio [3]: 1790
